From patent publication US11247990B1, “Bicyclic fused pyridine compounds as inhibitors of TAM kinases” (ARRAY BIOPHARMA INC., priority 2017, dated 2022)

Assays:
Details in all cases: averaged IC50
[1] = biological target: His-tagged recombinant human AXL cytoplasmic domain (Homo sapiens (Human), UniProt P30530); experiment: AXL Enzyme Assay (LanthaScreen Eu Kinase Binding, TR-FRET)
How it was run: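 Compound displacement measured by TR-FRET after 60 min at 22 °C, using Eu-based LanthaScreen binding technology. Ratiometric emission converted to percent of control, fitted to a 4-parameter logistic curve, with IC50 at 50 POC.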

[2] = biological target: His-tagged recombinant human MER cytoplasmic domain (Homo sapiens (Human), UniProt Q12866); experiment: MER Enzyme Assay (LanthaScreen Eu Kinase Binding, TR-FRET)
His-tagged recombinant human MER cytoplasmic domain, sequence (Q12866 527-999): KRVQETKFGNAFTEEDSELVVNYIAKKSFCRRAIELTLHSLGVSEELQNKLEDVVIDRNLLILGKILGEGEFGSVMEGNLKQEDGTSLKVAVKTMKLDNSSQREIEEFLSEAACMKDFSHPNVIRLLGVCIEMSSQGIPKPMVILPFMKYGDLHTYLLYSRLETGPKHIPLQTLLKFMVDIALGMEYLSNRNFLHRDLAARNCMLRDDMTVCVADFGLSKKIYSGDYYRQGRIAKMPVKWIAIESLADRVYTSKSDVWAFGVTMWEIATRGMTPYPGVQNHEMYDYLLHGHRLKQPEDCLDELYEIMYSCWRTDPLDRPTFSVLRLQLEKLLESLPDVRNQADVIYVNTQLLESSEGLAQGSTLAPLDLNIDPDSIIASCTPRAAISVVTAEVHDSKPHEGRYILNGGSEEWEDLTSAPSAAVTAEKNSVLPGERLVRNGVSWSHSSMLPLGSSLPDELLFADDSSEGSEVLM
How it was run: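 Percent of control, derived from ratiometric TR-FRET emission, was fitted to a 4-parameter logistic curve and IC50 taken at 50 POC. Binding was read after 60 min at 22 °C using Eu-based LanthaScreen technology and recombinant His-tagged MER cytoplasmic domain.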

[3] = biological target: GST-tagged recombinant human TYRO3 kinase domain (Homo sapiens (Human), UniProt Q06418); experiment: TYRO3 Enzyme Assay (LanthaScreen Eu Kinase Binding, TR-FRET)
GST-tagged recombinant human TYRO3 kinase domain, sequence (Q06418 518-790): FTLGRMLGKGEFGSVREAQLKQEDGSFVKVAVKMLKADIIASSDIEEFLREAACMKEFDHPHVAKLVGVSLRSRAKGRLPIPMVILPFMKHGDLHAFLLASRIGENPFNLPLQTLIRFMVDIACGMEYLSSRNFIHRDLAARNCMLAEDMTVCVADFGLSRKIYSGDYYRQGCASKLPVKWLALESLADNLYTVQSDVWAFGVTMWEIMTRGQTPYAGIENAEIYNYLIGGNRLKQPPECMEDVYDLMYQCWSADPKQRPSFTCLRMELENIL
How it was run: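 LanthaScreen Eu binding (tracer displacement) format read by TR-FRET after 60 min at 22 °C. Emission ratio converted to percent of control; IC50 taken where a 4-parameter logistic fit crosses 50 POC.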

His-tagged recombinant human AXL cytoplasmic domain, sequence (P30530 473-894): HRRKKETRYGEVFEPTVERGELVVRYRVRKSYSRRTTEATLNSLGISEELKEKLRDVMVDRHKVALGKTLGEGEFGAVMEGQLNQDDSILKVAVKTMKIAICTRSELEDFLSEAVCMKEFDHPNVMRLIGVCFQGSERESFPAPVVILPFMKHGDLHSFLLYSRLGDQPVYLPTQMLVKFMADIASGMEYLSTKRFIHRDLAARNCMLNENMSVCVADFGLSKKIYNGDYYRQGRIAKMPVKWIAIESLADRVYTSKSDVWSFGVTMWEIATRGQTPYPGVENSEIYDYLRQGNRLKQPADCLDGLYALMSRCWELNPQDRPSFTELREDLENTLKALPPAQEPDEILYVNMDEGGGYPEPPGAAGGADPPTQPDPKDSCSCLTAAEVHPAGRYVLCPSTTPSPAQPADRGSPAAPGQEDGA

Row | IC50 [1] [µM] | IC50 [2] [µM] | IC50 [3] [µM] | Compound
1 | < 0.01 | < 0.01 | 0.01 to 0.1 | CCNc1cc2c(cn1)c(-c1cnn(C)c1)nn2[C@H]1CC[C@@H](Oc2nccc(C)c2F)CC1 [Example 346, N-ethyl-1-((1s,4s)-4-((3-fluoro-4-methylpyridin-2-yl)oxy)cyclohexyl)-3-(1-methyl-1H-pyrazol-4-yl)-1H-pyrazolo[4,3-c]pyridin-6-amine]
2 | < 0.01 | < 0.01 | 0.1 to 1 | CCNc1cc2c(cn1)c(-c1cnn(C)c1)nn2[C@H]1CC[C@@H](Oc2nccc(N(C)C)c2F)CC1 [Example 349, 1-((1s,4s)-4-((4-(dimethylamino)-3-fluoropyridin-2-yl)oxy)cyclohexyl)-N-ethyl-3-(1-methyl-1H-pyrazol-4-yl)-1H-pyrazolo[4,3-c]pyridin-6-amine]
3 | < 0.01 | < 0.01 | 0.01 to 0.1 | CNc1cc2c(cn1)c(-c1cnn(C(C)(C)C#N)c1)nn2[C@H]1CC[C@@H](Oc2cccc(F)c2F)CC1 [Example 369, 2-(4-(1-((1s,4s)-4-(2,3-difluorophenoxy)cyclohexyl)-6-(methylamino)-1H-pyrazolo[4,3-c]pyridin-3-yl)-1H-pyrazol-1-yl)-2-methylpropanenitrile]
4 | < 0.01 | < 0.01 | 0.01 to 0.1 | CCNc1cc2c(cn1)c(-c1cnn(C)c1)nn2[C@H]1CC[C@@H](Oc2cccc(F)c2F)CC1 [Example 374, 1-((1s,4s)-4-(2,3-difluorophenoxy)cyclohexyl)-N-ethyl-3-(1-methyl-1H-pyrazol-4-yl)-1H-pyrazolo[4,3-c]pyridin-6-amine]
5 | < 0.01 | < 0.01 | 0.01 to 0.1 | CNc1cc2c(cn1)c(-c1cnn(C)c1)nn2[C@H]1CC[C@@H](Oc2ccccc2S(C)(=O)=O)CC1 [Example 375, N-methyl-3-(1-methyl-1H-pyrazol-4-yl)-1-((1s,4s)-4-(2-(methylsulfonyl)phenoxy)cyclohexyl)-1H-pyrazolo[4,3-c]pyridin-6-amine]
6 | < 0.01 | < 0.01 | < 0.01 | CNc1cc2c(cn1)c(-c1cnn(C)c1)nn2[C@H]1CC[C@@H](Oc2cccc3ncccc23)CC1 [Example 377, N-methyl-3-(1-methyl-1H-pyrazol-4-yl)-1-((1s,4s)-4-(quinolin-5-yloxy)cyclohexyl)-1H-pyrazolo[4,3-c]pyridin-6-amine]
7 | < 0.01 | < 0.01 | 0.01 to 0.1 | CCNc1cc2c(cn1)c(-c1cnn(C)c1)nn2[C@H]1CC[C@@H](Oc2cccc(C#N)c2)CC1 [Example 378, 3-(((1s,4s)-4-(6-(ethylamino)-3-(1-methyl-1H-pyrazol-4-yl)-1H-pyrazolo[4,3-c]pyridin-1-yl)cyclohexyl)oxy)benzonitrile]
8 | < 0.01 | < 0.01 | < 0.01 | CCNc1cc2c(cn1)c(-c1cnn(C)c1)nn2[C@H]1CC[C@@H](Oc2cccc(C#N)c2C)CC1 [Example 382, 3-(((1s,4s)-4-(6-(ethylamino)-3-(1-methyl-1H-pyrazol-4-yl)-1H-pyrazolo[4,3-c]pyridin-1-yl)cyclohexyl)oxy)-2-methylbenzonitrile]
9 | < 0.01 | < 0.01 | < 0.01 | CNc1cc2c(cn1)c(-c1cnn(C)c1)nn2[C@H]1CC[C@@H](Oc2cccc3ncc(F)cc23)CC1 [Example 384, 1-((1,4s)-4-((3-fluoroquinolin-5-yl)oxy)cyclohexyl)-N-methyl-3-(1-methyl-1H-pyrazol-4-yl)-1H-pyrazolo[4,3-c]pyridin-6-amine]
10 | < 0.01 | < 0.01 | 0.01 to 0.1 | CNC(=O)c1ccc(O[C@H]2CC[C@@H](n3nc(-c4cnn(C)c4)c4cnc(NC)cc43)CC2)c(C(F)(F)F)c1 [Example 393, N-methyl-4-(((1s,4s)-4-(3-(1-methyl-1H-pyrazol-4-yl)-6-(methylamino)-1H-pyrazolo[4,3-c]pyridin-1-yl)cyclohexyl)oxy)-3-(trifluoromethyl)benzamide]
11 | < 0.01 | < 0.01 | 0.01 to 0.1 | CNc1cc2c(cn1)c(-c1cnn(C(C)(C)CO)c1)nn2[C@H]1CC[C@@H](Oc2ccccc2F)CC1 [Example 395, 2-(4-(1-((1s,4s)-4-(2-fluorophenoxy)cyclohexyl)-6-(methylamino)-1H-pyrazolo[4,3-c]pyridin-3-yl)-1H-pyrazol-1-yl)-2-methylpropan-1-ol]
12 | < 0.01 | < 0.01 | 0.01 to 0.1 | CNc1cc2c(cn1)c(-c1cnn(CC(C)(C)O)c1)nn2[C@H]1CC[C@@H](Oc2ccccc2F)CC1 [Example 396, 1-(4-(1-((1s,4s)-4-(2-fluorophenoxy)cyclohexyl)-6-(methylamino)-1H-pyrazolo[4,3-c]pyridin-3-yl)-1H-pyrazol-1-yl)-2-methylpropan-2-ol]
13 | < 0.01 | < 0.01 | 0.01 to 0.1 | CNc1cc2c(cn1)c(-c1cnn([C@H]3CCNC[C@@H]3F)c1)nn2[C@H]1CC[C@@H](Oc2ccccc2F)CC1 [Example 399, 1-((1s,4R)-4-(2-fluorophenoxy)cyclohexyl)-3-(1-((3S,4S)-3-fluoropiperidin-4-yl)-1H-pyrazol-4-yl)-N-methyl-1H-pyrazolo[4,3-c]pyridin-6-amine]

Continued, compound first:

Row | Compound | IC50 [1] [µM] | IC50 [2] [µM] | IC50 [3] [µM]
14 | CCNc1cc2c(cn1)c(N1CC[C@H](O)C1)nn2[C@H]1CC[C@@H](Oc2nccc(C(F)(F)F)c2F)CC1 [Example 336, (S)-1-(6-(ethylamino)-1-((1s,4R)-4-((3-fluoro-4-(trifluoromethyl)pyridin-2-yl)oxy)cyclohexyl)-1H-pyrazolo[4,3-c]pyridin-3-yl)pyrrolidin-3-ol] | < 0.01 | < 0.01 | 0.01 to 0.1
15 | CCNc1cc2c(cn1)c(N1CCC[C@H](NC)C1)nn2[C@H]1CC[C@@H](Oc2nccc(C(F)(F)F)c2F)CC1 [Example 338, N-ethyl-1-((1s,4R)-4-((3-fluoro-4-(trifluoromethyl)pyridin-2-yl)oxy)cyclohexyl)-3-((S)-3-(methylamino)piperidin-1-yl)-1H-pyrazolo[4,3-c]pyridin-6-amine] | < 0.01 | < 0.01 | 0.01 to 0.1
16 | CCNc1cc2c(cn1)c(N1CC[C@@H](NC)C1)nn2[C@H]1CC[C@@H](Oc2nccc(C(F)(F)F)c2F)CC1 [Example 339, N-ethyl-1-((1s,4S)-4-((3-fluoro-4-(trifluoromethyl)pyridin-2-yl)oxy)cyclohexyl)-3-((R)-3-(methylamino)pyrrolidin-1-yl)-1H-pyrazolo[4,3-c]pyridin-6-amine] | < 0.01 | < 0.01 | < 0.01
17 | CCNc1cc2c(cn1)c(N1CC3COCC3C1)nn2[C@H]1CC[C@@H](Oc2nccc(C(F)(F)F)c2F)CC1 (stereo partly drawn) [Example 342, N-ethyl-1-((1s,4s)-4((3-fluoro-4-(trifluoromethyl)pyridin-2-yl)oxy)cyclohexyl)-3-(tetrahydro-1H-furo[3,4-c]pyrrol-5(3H)-yl)-1H-pyrazolo[4,3-c]pyridin-6-amine] | < 0.01 | < 0.01 | 0.01 to 0.1
18 | CCNc1cc2c(cn1)c(N1CCNCC1)nn2[C@H]1CC[C@@H](Oc2nccc(C(F)(F)F)c2F)CC1 [Example 343, N-ethyl-1-((1s,4s)-4((3-fluoro-4-(trifluoromethyl)pyridin-2-yl)oxy)cyclohexyl)-3-(piperazin-1-yl)-1H-pyrazolo[4,3-c]pyridin-6-amine] | < 0.01 | < 0.01 | < 0.01
19 | CCNc1cc2c(cn1)c(N1CCC(NC)CC1)nn2[C@H]1CC[C@@H](Oc2nccc(C(F)(F)F)c2F)CC1 [Example 344, N-ethyl-1-((1s,4s)-4((3-fluoro-4-(trifluoromethyl)pyridin-2-yl)oxy)cyclohexyl)-3-(4-(methylamino)piperidin-1-yl)-1H-pyrazolo[4,3-c]pyridin-6-amine] | < 0.01 | < 0.01 | 0.01 to 0.1
20 | CCNc1cc2c(cn1)c(N1CCC(N(C)C)CC1)nn2[C@H]1CC[C@@H](Oc2nccc(C(F)(F)F)c2F)CC1 [Example 345, 3-(4-(dimethylamino)piperidin-1-yl)-N-ethyl-1-((1s,4s)-4-((3-fluoro-4-(trifluoromethyl)pyridin-2-yl)oxy)cyclohexyl)-1H-pyrazolo[4,3-c]pyridin-6-amine] | < 0.01 | < 0.01 | 0.01 to 0.1
21 | CCNc1cc2c(cn1)c(-c1cnn(C)c1)nn2[C@H]1CC[C@@H](Oc2nccc(C(F)(F)F)c2N(C)C)CC1 [Example 350, 1-((1s,4s)-4-((3-(dimethylamino)-4-(trifluoromethyl)pyridin-2-yl)oxy)cyclohexyl)-N-ethyl-3-(1-methyl-1H-pyrazol-4-yl)-1H-pyrazolo[4,3-c]pyridin-6-amine] | < 0.01 | < 0.01 | 0.01 to 0.1
22 | CCNc1cc2c(cn1)c([C@H]1CC[C@@H](N(C)C)CC1)nn2[C@H]1CC[C@@H](Oc2nccc(C(F)(F)F)c2F)CC1 [Example 351, 3-((1s,4S)-4-(dimethylamino)cyclohexyl)-N-ethyl-1-((1s,4S)-4-((3-fluoro-4-(trifluoromethyl)pyridin-2-yl)oxy)cyclohexyl)-1H-pyrazolo[4,3-c]pyridin-6-amine] | < 0.01 | < 0.01 | < 0.01
23 | CCNc1cc2c(cn1)c(-c1cnn(C)c1)nn2[C@H]1CC[C@@H](Oc2nccc(C#N)c2F)CC1 [Example 352, 2-(((1s,4s)-4-(6-(ethylamino)-3-(1-methyl-1H-pyrazol-4-yl)-1H-pyrazolo[4,3-c]pyridin-1-yl)cyclohexyl)oxy)-3-fluoroisonicotinonitrile] | < 0.01 | < 0.01 | 0.01 to 0.1
